Reference: ChEMBL document CHEMBL4321794, “Discovery and Optimization of 2-Arylquinazolin-4-ones into a Potent and Selective Tankyrase Inhibitor Modulating Wnt Pathway Activity” (J Med Chem, 2019)

Legend:
[1] = Intrinsic clearance in human liver microsomes assessed per mg protein in presence of NADPH by UPLC analysis; type: ADME, Microsome; settings: read-out: CLH
[2] = target: T1, Protein mono-ADP-ribosyltransferase TIPARP (Homo sapiens, UniProt Q7Z3E1); assay: Inhibition of N-terminal FLAG-tagged recombinant human PARP7 (400 to 657 residues) expressed in Baculovirus infected Sf9 cells using biotinylated substrate after 1 hr by chemiluminescence method
T1 sequence (Q7Z3E1 whole entry): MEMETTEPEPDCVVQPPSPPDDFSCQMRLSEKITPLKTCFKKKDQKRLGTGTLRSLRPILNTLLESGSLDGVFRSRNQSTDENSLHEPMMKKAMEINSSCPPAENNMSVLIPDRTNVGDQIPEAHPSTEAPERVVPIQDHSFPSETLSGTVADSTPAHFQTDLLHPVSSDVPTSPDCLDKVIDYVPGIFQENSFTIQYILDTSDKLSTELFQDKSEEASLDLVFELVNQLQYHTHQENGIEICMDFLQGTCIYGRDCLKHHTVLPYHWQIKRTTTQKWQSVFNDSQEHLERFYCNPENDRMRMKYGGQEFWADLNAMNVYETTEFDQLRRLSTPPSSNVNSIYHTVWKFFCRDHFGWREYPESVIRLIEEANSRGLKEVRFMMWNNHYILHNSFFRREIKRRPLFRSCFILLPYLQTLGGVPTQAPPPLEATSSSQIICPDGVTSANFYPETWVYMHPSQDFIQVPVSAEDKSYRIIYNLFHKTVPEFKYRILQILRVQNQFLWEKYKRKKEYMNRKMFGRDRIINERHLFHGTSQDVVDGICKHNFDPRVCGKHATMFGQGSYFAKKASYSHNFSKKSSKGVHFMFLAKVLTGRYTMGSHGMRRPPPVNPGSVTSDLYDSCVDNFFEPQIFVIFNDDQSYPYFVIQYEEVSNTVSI

[3] = target: T2, Protein mono-ADP-ribosyltransferase PARP11 (Homo sapiens, UniProt Q9NR21); assay: Inhibition of human N-terminal GST-tagged PARP11 (8 to 338 residues) expressed in baculovirus infected Sf9 insect cells using biotinylated substrate by chemiluminescence method
T2 sequence (Q9NR21 whole entry): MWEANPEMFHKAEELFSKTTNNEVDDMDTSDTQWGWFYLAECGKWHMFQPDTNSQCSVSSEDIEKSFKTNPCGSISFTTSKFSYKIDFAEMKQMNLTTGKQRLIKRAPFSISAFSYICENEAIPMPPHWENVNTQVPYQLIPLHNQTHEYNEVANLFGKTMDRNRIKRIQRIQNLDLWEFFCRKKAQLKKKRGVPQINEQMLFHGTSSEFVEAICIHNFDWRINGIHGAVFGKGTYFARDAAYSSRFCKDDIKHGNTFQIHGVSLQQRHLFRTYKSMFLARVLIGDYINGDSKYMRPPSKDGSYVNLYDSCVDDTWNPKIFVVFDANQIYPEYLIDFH

[4] = Half-life in mouse; type: ADME, organism-based; settings: in vivo

## CC(C)(O)c1ccc(-c2nc3c(F)cc(F)cc3c(=O)[nH]2)cc1
[1]
  microsomal CLint: < 10 µL/min/mg
[2]
  IC50: > 10 µM
[3]
  IC50: > 10 µM
[4]
  half-life: 1.4 h
